The results in this text go back to patent publication US4348264A, “Photocatalyzed process for producing carbapenams and carbapen-2-ems” (Pfizer Inc., priority 1981, dated 1982).

Common to all, as to assay type: cell-based
For one experiment, the system named is Bacillus subtilis. Briefly: Standard disc-plate method, zone of inhibition. From the text:
(§1) The utility of the various compounds as intermediates to other compounds of the present invention will be evident from the preceding discussion. The antibacterial activity of these compounds, reflecting their utility in the control of susceptible bacterial infections in man and animals, as animal feed additives for promotion of growth, or as preservatives of materials biodegraded by susceptible microorganisms, is best measured by the standard disc-plate method routinely employed in clinical laboratories for determining the sensitivity of microorganisms to antimicrobial substances. Sensitivity discs are prepared by dipping a standard 6.25 mm. paper disc into a solution of the compound to be tested (conc. 1 mg./ml.) in a volatile solvent (e.g. methylene chloride) and the disc dried, producing discs containing approximately 25 microg. of the compound. The discs are placed on the surface of agar growth media seeded with the test microorganism, previously plated into Petri dishes. The plates are incubated overnight at 35°-37° C. Activity of the test compound is reflected by a zone of inhibition of bacterial growth around the test disc. The diameter of this zone provides a quantitative measure of the activity of the antibacterial substance. The activity of various compounds of the present invention is summarized in Table I. For comparison, results obtained with 10 microg. discs of ampicillin and penicillin G are included as positive controls.

For experiment [1], the system named is Escherichia coli. The experiment in a line: Standard disc-plate method, zone of inhibition. The settings on record: for zone of inhibition at 25 µg/disc: Escherichia coli.
Source text: as §1

The test system of the next experiment is Micrococcus luteus. Briefly: Standard disc-plate method, zone of inhibition.
Source text: as §1

A further experiment has as its system Staphylococcus aureus. Briefly: Standard disc-plate method, zone of inhibition.
Source text: as §1

A further experiment deals with Proteus morgani. The experiment in a line: Serial dilution-tube method, MIC. Conditions: brain heart infusion broth.
For the next experiment, the system named is Enterobacter cloacae. Briefly: Serial dilution-tube method, MIC. Conditions: brain heart infusion broth.
The subject of the next experiment is Serratia marcescens. Briefly: Serial dilution-tube method, MIC. Conditions: brain heart infusion broth.
The next experiment concerns Klebsiella pneumoniae. Briefly: Serial dilution-tube method, MIC. The settings on record: brain heart infusion broth.
For another experiment, the system named is Pseudomonas aeruginosa. The experiment in a line: Serial dilution-tube method, MIC. Conditions: brain heart infusion broth.
Experiment [2] deals with Escherichia coli (Antibiotic Resistant). The experiment in a line: Serial dilution-tube method, MIC. Conditions: brain heart infusion broth.
The test system of experiment [3] is Escherichia coli. The experiment in a line: Serial dilution-tube method, MIC. Conditions: brain heart infusion broth.
Experiment [4] concerns Staphylococcus aureus (Antibiotic Resistant). The experiment in a line: Serial dilution-tube method, MIC. Conditions: brain heart infusion broth.
For experiment [5] the test system is unchanged. Briefly: Standard disc-plate method, zone of inhibition. Conditions: for zone of inhibition at 25 µg/disc: 25 microgram discs.
Source text: as §1

For the next experiment, the system named is Vibrio percolans. The experiment in a line: Standard disc-plate method, zone of inhibition. Conditions: for zone of inhibition at 25 µg/disc: 25 microgram discs.
Source text: as §1

Where [6] appears, read: Bacillus subtilis, 25 microgram discs.
Where [7] appears, read: Micrococcus luteus, 25 microgram discs.
The mark [8] stands for this setting: Staphylococcus aureus, antibiotic resistant.
Where [9] appears, read: Staphylococcus aureus, 25 microgram discs.
The mark [10] stands for this setting: positive control, 10 microgram discs.

What is called zone of inhibition is the size of the clear area around the sample on an inoculated plate.

Regarding `CC(=O)OC1C(C)=C(C(=O)[O-])N2C(=O)C(C(C)O)C12.[Na+]` (stereo not drawn) [HET H H CH3 H OAc I, Sodium 6-alpha-(1-Hydroxyethyl)-1-acetoxy-2-methylcarbapen-2-em-3-carboxylate], the “Zone of Inhibition” value with Bacillus subtilis (25 microgram discs) turned out to be 16 mm; in the experiment on Escherichia coli [1] (25 microgram discs), 0 mm; in the experiment on Micrococcus luteus (25 microgram discs), 13 mm; in the experiment with Staphylococcus aureus (25 microgram discs) it was 0 mm. Also, the “Minimum Inhibitory Concentration” value (in the experiment on Proteus morgani; in the experiment with Enterobacter cloacae; with Serratia marcescens; with Klebsiella pneumoniae; in the experiment on Pseudomonas aeruginosa; in [2]) was more than 200 µg/mL in each case. Besides, the results for the “Minimum Inhibitory Concentration” value (with Escherichia coli [3]; in experiment [4]) were more than 200 µg/mL and 100 µg/mL, respectively.
As for `CCN1CCN(C(=O)N[C@@H](C(=O)NC2C(=O)N3C(C(=O)OCOC(=O)C(C)(C)C)=C(C)C(=O)C23)c2ccccc2)C(=O)C1=O` (some centres unmarked) [EPA H POM CH3 O II, Pivaloyloxymethyl 2-Methyl-1-oxo-6-[2-phenyl-2-(4-ethyl-2,3-dioxopiperazine-1-carboxamido)acetamido]carbapen-2-em-3-carboxylate], the zone of inhibition at 25 µg/disc in the experiment on Bacillus subtilis (setting [6]) turned out to be 0 mm; with Escherichia coli [1] (25 microgram discs), 0 mm; in the experiment on Micrococcus luteus (setting [7]), 0 mm; in experiment [5] (setting [8]) it was 0 mm; in the experiment with Staphylococcus aureus (setting [9]) it was 0 mm; in the experiment on Vibrio percolans (Comamonas terrigena), 20 mm.
For the compound `Cc1onc(-c2ccccc2)c1C(=O)NC1C(=O)N2C(C(=O)OCOC(=O)C(C)(C)C)C(C)C(=O)C12` (centres unmarked) [MPI H POM CH3 O I, Pivaloyloxymethyl 2-Methyl-6-(5-methyl-3-phenylisoxazole-4-carboxamido)-1-oxocarbapenam-3-carboxylate], the zone of inhibition at 25 µg/disc with Bacillus subtilis (setting [6]) turned out to be 15 mm; in the experiment with Escherichia coli [1] (25 microgram discs), 0 mm; in [5] (setting [8]) it was 11 mm; in the experiment with Staphylococcus aureus (setting [9]), 0 mm; in the experiment with Vibrio percolans (Comamonas terrigena), 0 mm.
As to `CC1=C(C(=O)OCOC(=O)C(C)(C)C)N2C(=O)CC2C1O` (centres unmarked) [H H POM CH3 H OH II, Pivaloyloxymethyl 1-Hydroxy-2-methylcarbapen-2-em-3-carboxylate], the zone of inhibition at 25 µg/disc with Bacillus subtilis (setting [6]) turned out to be 15 mm; with Escherichia coli [1] (25 microgram discs), 10 mm; in the experiment on Micrococcus luteus (setting [7]), 10 mm; in experiment [5] (setting [8]) it was 13 mm; in the experiment on Staphylococcus aureus (setting [9]), 15 mm.
Take `CC(=O)OC1C(C)C(C(=O)O)N2C(=O)C(NC(=O)COc3ccccc3)C12` (centres unmarked) [PMA H H CH3 H OAc I, 1-Acetoxy-2-methyl-6-(2-phenoxyacetamido)carbapenam-3-carboxylic Acid]: the zone of inhibition at 25 µg/disc (with Bacillus subtilis (setting [6]); in the experiment with Escherichia coli [1] (25 microgram discs); in the experiment on Micrococcus luteus (setting [7]); in experiment [5] (setting [8]); with Staphylococcus aureus (setting [9])) was 0 mm each time.
Regarding `CC1(C)S[C@@H]2[C@H](NC(=O)Cc3ccccc3)C(=O)N2[C@H]1C(=O)O` [Penicillin G, reference compound], the “Zone of Inhibition” value came to 33 mm in the experiment on Bacillus subtilis (setting [10]); 0 mm in the experiment with Escherichia coli [1] (setting [10]); 45 mm in the experiment with Micrococcus luteus (setting [10]); 0 mm in experiment [5] (positive control, 10 microgram discs, antibiotic resistant); 32 mm in the experiment with Staphylococcus aureus (setting [10]); 32 mm in the experiment on Vibrio percolans (setting [10]).
As for `CC(=O)OC1C(C)=C(C(=O)OCOC(=O)C(C)(C)C)N2C(=O)CC12` (centres unmarked) [H H POM CH3 H OAc II, Pivaloyloxymethyl 1-Acetoxy-2-methylcarbapen-2-em-3-carboxylate], the zone of inhibition at 25 µg/disc in the experiment on Bacillus subtilis (setting [6]) amounted to 14 mm; in the experiment on Micrococcus luteus (setting [7]), 0 mm; in experiment [5] (setting [8]) it was 0 mm; in the experiment with Staphylococcus aureus (setting [9]), 13 mm.
As to `CC(=O)OCC1=C(C(=O)OCOC(=O)C(C)(C)C)N2C(=O)CC2C1=O` (centres unmarked) [H H POM CH2OAc O II, Pivaloyloxymethyl 2-Acetoxymethyl-1-oxocarbapen-2-em-3-carboxylate], the zone of inhibition at 25 µg/disc was found to be 12 mm in [5] (setting [8]) and 0 mm in the experiment with Staphylococcus aureus (setting [9]).
With `CC(=O)OC1C(C)=C(C(=O)O)N2C(=O)CC12` (centres unmarked) [H H H CH3 H OAc II, Sodium 1-Acetoxy-2-methylcarbapen-2-em-3-carboxylate], the zone of inhibition at 25 µg/disc in the experiment on Bacillus subtilis (setting [6]) was found to be 13 mm; with Escherichia coli [1] (25 microgram discs), 0 mm; in experiment [5] (setting [8]), 8 mm; in the experiment with Vibrio percolans (Comamonas terrigena) it was 18 mm.
Regarding `CC(=O)OC(C)C1C(=O)N2C(C(=O)O)=C(C)C(OC(C)=O)C12` (stereo not drawn) [AET H H CH3 H OAc I, Sodium 6-alpha-(1-Acetoxyethyl)-1-acetoxy-2-methylcarbapen-2-em-3-carboxylate], the zone of inhibition at 25 µg/disc was 25 mm with Bacillus subtilis (setting [6]); 0 mm with Escherichia coli [1] (25 microgram discs); 26 mm with Micrococcus luteus (setting [7]); 21 mm with Staphylococcus aureus (setting [9]); 10 mm in the experiment on Vibrio percolans (Comamonas terrigena).
`CC1(C)S[C@@H]2[C@H](NC(=O)Cc3ccccc3)C(=O)N2[C@H]1C(=O)O` [Penicillin, reference compound]: the zone of inhibition at 10 µg/disc in the experiment on Bacillus subtilis (Bacillus subtilis, positive control, 10 microgram discs) came to 32 mm; in the experiment on Micrococcus luteus (Micrococcus luteus), 45 mm; in experiment [5] (Staphylococcus aureus), 0 mm; with Staphylococcus aureus (Staphylococcus aureus, positive control, 10 microgram discs), 31 mm; in the experiment on Vibrio percolans (Comamonas terrigena, positive control, 10 microgram discs) it was 33 mm. Further, the “Zone of Inhibition” value with Escherichia coli [1] (setting [10]) stood at 16 mm.
For `CC1=C(C(=O)OCOC(=O)C(C)(C)C)N2C(=O)C(C(C)O)C2C1O` (stereo not drawn) [HET H POM CH3 H OH I, pivaloyloxymethyl 6-alpha-(1-hydroxyethyl)-1-hydroxy-2-methylcarbapen-2-em-3-carboxylate], the “Zone of Inhibition” value in the experiment with Bacillus subtilis (25 microgram discs) turned out to be 24 mm; in the experiment on Escherichia coli [1] (25 microgram discs) it was 14 mm; in the experiment on Micrococcus luteus (25 microgram discs) it was 31 mm; with Staphylococcus aureus (25 microgram discs), 27 mm.
Regarding `COC1(NC(=O)COc2ccccc2)C(=O)N2C(C(=O)OCOC(=O)C(C)(C)C)=C(C)C(=O)C21` (centres unmarked) [PMA OMe POM CH3 O II, Pivaloyloxymethyl 6-Methoxy-2-methyl-1-oxo-6-(2-phenoxyacetamido)carbapen-2-em-3-carboxylate], the zone of inhibition at 25 µg/disc amounted to 33 mm with Bacillus subtilis (setting [6]); 0 mm with Escherichia coli [1] (25 microgram discs); 0 mm in experiment [5] (setting [8]); 8 mm with Staphylococcus aureus (setting [9]); 0 mm with Vibrio percolans (Comamonas terrigena).
Turning to `COC1=C(C(=O)O)N2C(=O)C(C(C)O)C2C1O` (stereo not drawn) [HET H H OCH3 H OH I, Sodium 6-alpha-(1-Hydroxyethyl)-1-hydroxy-2-methoxycarbapen-2-em-3-carboxylate], the zone of inhibition at 25 µg/disc in the experiment on Bacillus subtilis (setting [6]) amounted to 22 mm; in the experiment with Escherichia coli [1] (25 microgram discs), 11 mm; in the experiment with Micrococcus luteus (setting [7]) it was 42 mm; with Staphylococcus aureus (setting [9]), 27 mm.
As to `CC(=O)OC(C)C1C(=O)N2C(C(=O)O)=C(C)C(O)C12` (stereo not drawn) [AET H H CH3 H OH I, Sodium 6-alpha-(1-Acetoxyethyl)-1-hydroxy-2-methylcarbapen-2-em-3-carboxylate], the zone of inhibition at 25 µg/disc stood at 15 mm in the experiment on Bacillus subtilis (setting [6]); 0 mm with Escherichia coli [1] (25 microgram discs); 20 mm with Micrococcus luteus (setting [7]); 20 mm in the experiment with Staphylococcus aureus (setting [9]); 16 mm in the experiment on Vibrio percolans (Comamonas terrigena).
For the compound `CC1=C(C(=O)OCOC(=O)C(C)(C)C)N2C(=O)C(NC(=O)c3c(-c4ccccc4)noc3C)C2C1=O` (centres unmarked) [MPI H POM CH3 O II, Pivaloyloxymethyl 2-Methyl-6-(5-methyl-3-phenylisoxazole-4-carboxamido)-1-oxocarbapen-2-em-3-carboxylate], the zone of inhibition at 25 µg/disc with Bacillus subtilis (setting [6]) worked out at 21 mm; in the experiment on Escherichia coli [1] (25 microgram discs) it was 0 mm; in experiment [5] (setting [8]), 9 mm; in the experiment with Staphylococcus aureus (setting [9]), 0 mm; in the experiment on Vibrio percolans (Comamonas terrigena), 0 mm.
